Source: PubChem BioAssay AID2060883 (Molecular Pharmacology Branch, DTP, NCI, 2025)
Each block holds one molecule with its values, some of them ahead of it.

Tested on: 843782-103-R-J1-PDC complex spheroid viability
Experiment: Anticancer human tumor 843782-103-R-J1-PDC patient-derived lung adenocarcinoma cell line growth inhibition [RAS]
Details: for IC50: curve of first compound; for viability, T/C: stronger effect = lower value
Source text: RAS pathway inhibitors in Combinations in Complex Spheroids
A high-throughput screen of multi-cell type tumor spheroids was designed to identify active combinations of RAS pathway inhibitors and targeted small molecules. Complex spheroids include a stromal component modeled by human endothelial cells (HUVEC) and fibroblasts modeled by human mesenchymal stem cells (MSCs). The concentration ranges selected for each drug and investigational agent were based upon clinically achievable concentrations if the clinical Cmax of the agent was known.
Compounds. The drugs and investigational agents: abemaciclib (NSC768073), cobimetinib (NSC768068), divarasib (GDC6063, NSC841802), docetaxel (NSC628503), GDC-1971 (RLY-1971, NSC841576), gemcitabine (NSC613327), inavolisib (NSC800729), ipatasertib (NSC767898), KB-0742 (NSC834161), MRTX-1133 (NSC836407), osimertinib (NSC779217), RMC-4630 (NSC839698), RMC-6236 (NSC851965), RMC-6291 (NSC852671), Ro-3306 (NSC812927), sapanisertib (NSC764658), SN-38 (NSC673596), staurosporine (NSC755774), SY5609 (NSC837396), and tovorafenib (DAY101, NSC766906), were obtained from the National Cancer Institute (NCI) Developmental Therapeutics Program Chemical Repository. The FDA-approved anticancer drug set is available from the NCI Developmental Therapeutics Program. […] The stock solutions were prepared in dimethyl sulfoxide (DMSO, Sigma-Aldrich, St. Louis, MO, cat. D2650) at 800-fold the tested concentration and stored at -70 degrees C prior to their use. All drugs and investigational agents were tested over a range starting from a high concentration at or near the clinical Cmax and decreasing in half-log increments. If the clinical Cmax for an agent had not been determined, the highest concentration tested was 10 microM.
Cell Culture. All cells were maintained in an incubator at 37 degrees C and 5% CO2 with 95% humidity. The PDC lines were cultured according to standard operating procedures established by the NCI PDMR. All PDCs were thawed and cultured in Matrigel-coated flasks prepared with a working solution of 1X Ham's F-12 nutrient mix, without supplementation (Invitrogen, Waltham, MA, cat. 11765054), 100 U/mL penicillin-streptomycin (Invitrogen, cat. 15140122), and 2.5% Matrigel (Corning Inc., Corning, NY, cat. 354248) for the first three passages. The 362531-283-R-J2-PDC and 782815-120-R-J1-PDC lines were cultured in 6C/Colon 1B media, which includes advanced DMEM/F-12 (Thermo Fisher Scientific, cat. 12634028), 10 mM HEPES (Thermo Fisher Scientific, cat. 15630080), 1X GlutaMAX supplement (Thermo Fisher Scientific, cat. 35050061), 0.1 mg/mL primocin (InvivoGen, San Diego, CA, cat. ant-pm-2), 10% defined fetal bovine serum, heat inactivated (HyClone Laboratories Inc., Logan, UT, cat. SH30070.03HI), 50% L-WRN conditioned media (ATCC, cat. CRL-3276), 1.25 mM N-Acetyl-L-cysteine (Sigma-Aldrich, cat. A9165), 10 mM nicotinamide (Sigma-Aldrich, cat. N0636), 1X B-27 supplement (Thermo Fisher Scientific, cat. 17504044), 1X N-2 supplement (Thermo Fisher Scientific, cat. 17502048), 50 ng/mL human EGF (Thermo Fisher Scientific, cat. PHG0311), and 10 microM Y-27632 dihydrochloride (Tocris Bioscience, cat. 1254). The K12877-001-R-J1-PDC line was cultured in 6I media, which includes all 6C/Colon 1B media plus 10 ng/mL human FGF-10 (PeproTech, cat. 100-26), 1 ng/mL human FGF-2 (PeproTech, cat. 100-18B), 1 µM prostaglandin E2 (Tocris Bioscience, cat. 2296), […] hydrocortisone (Sigma-Aldrich, cat. H4001), and […] bovine insulin (Sigma-Aldrich, cat. I6634). The K86415-001-R-J1-PDC line was cultured in 6D media, which includes all 6C/Colon 1B media components minus the L-WRN conditioned media. The 485176-168-R4-J1-PDC was cultured in PANC media, which includes all 6C/Colon 1B media plus 100 ng/mL human FGF-10 (PeproTech, cat. 100-26), 500 nM SB-431542 (Selleckchem, cat. S1067), and 10 nM gastrin (Tocris Bioscience, cat. 3006). […]
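Also: viability read after seven days of compound exposure.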

IC50 (second compound 0.000949 µM): 197 nM
IC50 (second compound 0.003 µM): 291 nM
IC50 (second compound 0.00949 µM): 237 nM
IC50 (second compound 0.03 µM): 406 nM
IC50 (second compound 0.0949 µM): 329 nM
IC50 (second compound 0.3 µM): 298 nM
Structure (SMILES): CCN1CCN(Cc2ccc(Nc3ncc(F)c(-c4cc(F)c5nc(C)n(C(C)C)c5c4)n3)nc2)CC1 + CCn1c(-c2cccnc2C(C)OC)c2c3cc(ccc31)N1CCOC(CC(NC(=O)C(C(C)C)N(C)C(=O)C3(F)CCN(C(=O)C#CC(C)(C)N(C)C)CC3)C(=O)N3CCCC(N3)C(=O)OCC(C)(C)C2)C1
viability, T/C (second compound 0.000949 µM, first compound 0.00316 µM): 81%
viability, T/C (second compound 0.000949 µM, first compound 0.01 µM): 73.8%
viability, T/C (second compound 0.000949 µM, first compound 0.0316 µM): 59%
viability, T/C (second compound 0.000949 µM, first compound 0.1 µM): 58.3%
viability, T/C (second compound 0.000949 µM, first compound 0.316 µM): 46.5%
viability, T/C (second compound 0.000949 µM, first compound 1 µM): 38.1%
viability, T/C (second compound 0.003 µM, first compound 0.00316 µM): 78.8%
viability, T/C (second compound 0.003 µM, first compound 0.01 µM): 69.4%
viability, T/C (second compound 0.003 µM, first compound 0.0316 µM): 62.8%
viability, T/C (second compound 0.003 µM, first compound 0.1 µM): 67.1%
viability, T/C (second compound 0.003 µM, first compound 0.316 µM): 45.4%
viability, T/C (second compound 0.003 µM, first compound 1 µM): 37.8%
viability, T/C (second compound 0.00949 µM, first compound 0.00316 µM): 71.4%
viability, T/C (second compound 0.00949 µM, first compound 0.01 µM): 72.5%
viability, T/C (second compound 0.00949 µM, first compound 0.0316 µM): 67.6%
viability, T/C (second compound 0.00949 µM, first compound 0.1 µM): 61.2%
viability, T/C (second compound 0.00949 µM, first compound 0.316 µM): 46.2%
viability, T/C (second compound 0.00949 µM, first compound 1 µM): 34.1%
viability, T/C (second compound 0.03 µM, first compound 0.00316 µM): 71.3%
viability, T/C (second compound 0.03 µM, first compound 0.01 µM): 72%
viability, T/C (second compound 0.03 µM, first compound 0.0316 µM): 71%
viability, T/C (second compound 0.03 µM, first compound 0.1 µM): 58.8%
viability, T/C (second compound 0.03 µM, first compound 0.316 µM): 56.4%
viability, T/C (second compound 0.03 µM, first compound 1 µM): 35.6%
viability, T/C (second compound 0.0949 µM, first compound 0.00316 µM): 84.2%
viability, T/C (second compound 0.0949 µM, first compound 0.01 µM): 75.7%
viability, T/C (second compound 0.0949 µM, first compound 0.0316 µM): 68.7%
viability, T/C (second compound 0.0949 µM, first compound 0.1 µM): 60.3%
viability, T/C (second compound 0.0949 µM, first compound 0.316 µM): 46.7%
viability, T/C (second compound 0.0949 µM, first compound 1 µM): 45%
viability, T/C (second compound 0.3 µM, first compound 0.00316 µM): 72%
viability, T/C (second compound 0.3 µM, first compound 0.01 µM): 66.1%
viability, T/C (second compound 0.3 µM, first compound 0.0316 µM): 56.5%
viability, T/C (second compound 0.3 µM, first compound 0.1 µM): 66.8%
viability, T/C (second compound 0.3 µM, first compound 0.316 µM): 46%
viability, T/C (second compound 0.3 µM, first compound 1 µM): 38.8%

IC50 (second compound 0.000949 µM): 1.49 nM
IC50 (second compound 0.003 µM): 1.45 nM
IC50 (second compound 0.00949 µM): 1.26 nM
IC50 (second compound 0.03 µM): 1.27 nM
IC50 (second compound 0.0949 µM): 1.46 nM
IC50 (second compound 0.3 µM): 1.23 nM
Structure (SMILES): CCc1c2c(nc3ccc(O)cc13)-c1cc3c(c(=O)n1C2)COC(=O)[C@]3(O)CC + CCn1c(-c2cccnc2C(C)OC)c2c3cc(ccc31)N1CCOC(CC(NC(=O)C(C(C)C)N(C)C(=O)C3(F)CCN(C(=O)C#CC(C)(C)N(C)C)CC3)C(=O)N3CCCC(N3)C(=O)OCC(C)(C)C2)C1
viability, T/C (second compound 0.000949 µM, first compound 0.000949 µM): 67.3%
viability, T/C (second compound 0.000949 µM, first compound 0.003 µM): 23.5%
viability, T/C (second compound 0.000949 µM, first compound 0.00949 µM): 6.26%
viability, T/C (second compound 0.000949 µM, first compound 0.03 µM): 2.82%
viability, T/C (second compound 0.000949 µM, first compound 0.0949 µM): 1.64%
viability, T/C (second compound 0.000949 µM, first compound 0.3 µM): 1.49%
viability, T/C (second compound 0.003 µM, first compound 0.000949 µM): 63.3%
viability, T/C (second compound 0.003 µM, first compound 0.003 µM): 27%
viability, T/C (second compound 0.003 µM, first compound 0.00949 µM): 5.6%
viability, T/C (second compound 0.003 µM, first compound 0.03 µM): 2.52%
viability, T/C (second compound 0.003 µM, first compound 0.0949 µM): 1.9%
viability, T/C (second compound 0.003 µM, first compound 0.3 µM): 1.58%
viability, T/C (second compound 0.00949 µM, first compound 0.000949 µM): 59.1%
viability, T/C (second compound 0.00949 µM, first compound 0.003 µM): 22.9%
viability, T/C (second compound 0.00949 µM, first compound 0.00949 µM): 6.03%
viability, T/C (second compound 0.00949 µM, first compound 0.03 µM): 2.26%
viability, T/C (second compound 0.00949 µM, first compound 0.0949 µM): 1.84%
viability, T/C (second compound 0.00949 µM, first compound 0.3 µM): 2.05%
viability, T/C (second compound 0.03 µM, first compound 0.000949 µM): 59.7%
viability, T/C (second compound 0.03 µM, first compound 0.003 µM): 21.9%
viability, T/C (second compound 0.03 µM, first compound 0.00949 µM): 3.99%
viability, T/C (second compound 0.03 µM, first compound 0.03 µM): 2.11%
viability, T/C (second compound 0.03 µM, first compound 0.0949 µM): 1.92%
viability, T/C (second compound 0.03 µM, first compound 0.3 µM): 1.55%
viability, T/C (second compound 0.0949 µM, first compound 0.000949 µM): 68.9%
viability, T/C (second compound 0.0949 µM, first compound 0.003 µM): 18.6%
viability, T/C (second compound 0.0949 µM, first compound 0.00949 µM): 3.32%
viability, T/C (second compound 0.0949 µM, first compound 0.03 µM): 1.45%
viability, T/C (second compound 0.0949 µM, first compound 0.0949 µM): 1.1%
viability, T/C (second compound 0.0949 µM, first compound 0.3 µM): 1.93%
viability, T/C (second compound 0.3 µM, first compound 0.000949 µM): 59.3%
viability, T/C (second compound 0.3 µM, first compound 0.003 µM): 17.8%
viability, T/C (second compound 0.3 µM, first compound 0.00949 µM): 3.68%
viability, T/C (second compound 0.3 µM, first compound 0.03 µM): 2.01%
viability, T/C (second compound 0.3 µM, first compound 0.0949 µM): 1.36%
viability, T/C (second compound 0.3 µM, first compound 0.3 µM): 1.25%
